Laboratory results as given in PubChem BioAssay (NCI).
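Dose response: 5 concentrations. Exposure: 48 h. Format: 96-well plates. Endpoint: linear interpolation; highest concentration if not reached. At the TGI there is no net growth.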

Experiments:
Assay in all cases: DTP human tumour cell line panel, 48 h
CAKI-1 renal = system: CAKI-1 renal
HT29 colon = system: HT29 colon
RXF 393 renal = system: RXF 393 renal
MOLT-4 leukemia = system: MOLT-4 leukemia
UACC-257 melanoma = system: UACC-257 melanoma
MALME-3M melanoma = system: MALME-3M melanoma
HCC-2998 colon = system: HCC-2998 colon
OVCAR-4 ovarian = system: OVCAR-4 ovarian
SF-268 CNS = system: SF-268 CNS
LOX IMVI melanoma = system: LOX IMVI melanoma
OVCAR-8 ovarian = system: OVCAR-8 ovarian
HL-60(TB) leukemia = system: HL-60(TB) leukemia
COLO 205 colon = system: COLO 205 colon
SR leukemia = system: SR leukemia
SF-539 CNS = system: SF-539 CNS
OVCAR-3 ovarian = system: OVCAR-3 ovarian
KM20L2 colon = system: KM20L2 colon
SK-OV-3 ovarian = system: SK-OV-3 ovarian
SNB-75 CNS = system: SNB-75 CNS

Compound	TGI (CAKI-1 renal)	TGI (HT29 colon)	TGI (RXF 393 renal)	TGI (MOLT-4 leukemia)	TGI (UACC-257 melanoma)	TGI (MALME-3M melanoma)	TGI (HCC-2998 colon)	TGI (OVCAR-4 ovarian)	TGI (SF-268 CNS)	TGI (LOX IMVI melanoma)	TGI (OVCAR-8 ovarian)	TGI (HL-60(TB) leukemia)	TGI (COLO 205 colon)	TGI (SR leukemia)	TGI (SF-539 CNS)	TGI (OVCAR-3 ovarian)	TGI (KM20L2 colon)	TGI (SK-OV-3 ovarian)	TGI (SNB-75 CNS)
C/C(CC(=O)Nc1ccc(Cl)c(Cl)c1)=N/NC(=O)C[n+]1ccccc1	> 100 µM	> 100 µM	> 100 µM	> 100 µM	> 100 µM	> 100 µM	> 100 µM	> 100 µM	> 100 µM	37.1 µM	> 100 µM	> 100 µM	> 100 µM	51.2 µM	> 100 µM	> 100 µM	> 100 µM	> 100 µM	–
COc1ccc(N2C(=O)C3c4[nH]c5ccc(OC)cc5c4C4CCC(C(C)(C)C)CC4C3C2=O)cc1 (centres undefined)	> 100 µM	> 100 µM	58.1 µM	> 100 µM	> 100 µM	58 µM	> 100 µM	43.6 µM	> 100 µM	> 100 µM	> 100 µM	> 100 µM	> 100 µM	> 100 µM	55.1 µM	> 100 µM	> 100 µM	80 µM	35.6 µM
CN(C)c1ccc(-c2cc(=O)c3cc4c(cc3[nH]2)OCO4)cc1	–	> 100 µM	> 100 µM	> 100 µM	> 100 µM	> 100 µM	> 100 µM	> 100 µM	> 100 µM	> 100 µM	> 100 µM	> 100 µM	> 100 µM	> 100 µM	> 100 µM	> 100 µM	> 100 µM	–	> 100 µM
COc1cccc2c1CCc1ccccc1CC2=O	> 100 µM	> 100 µM	> 100 µM	> 100 µM	> 100 µM	> 100 µM	> 100 µM	> 100 µM	> 100 µM	> 100 µM	> 100 µM	> 100 µM	> 100 µM	> 100 µM	> 100 µM	> 100 µM	> 100 µM	> 100 µM	> 100 µM
COC(=O)CCCN(C)c1n[nH]c(N)n1	–	> 100 µM	> 100 µM	> 100 µM	> 100 µM	–	> 100 µM	> 100 µM	> 100 µM	> 100 µM	> 100 µM	> 100 µM	> 100 µM	> 100 µM	> 100 µM	> 100 µM	> 100 µM	> 100 µM	> 100 µM
CCOC(=O)/C(=C\c1ccc(O)c(OC)c1)C(=O)c1ccccc1	> 58.7 µM	> 66.8 µM	57.8 µM	> 52.2 µM	> 49.7 µM	> 49 µM	38.1 µM	> 40.3 µM	28.1 µM	21.7 µM	18.3 µM	52.4 µM	> 69.1 µM	62.7 µM	28 µM	54.3 µM	> 56.7 µM	> 61.4 µM	89.5 µM
Cc1nc2c(n1CCO)C(=O)c1ccccc1C2=O	–	> 100 µM	> 100 µM	> 100 µM	34 µM	24.2 µM	> 100 µM	99 µM	> 100 µM	> 100 µM	> 100 µM	54.2 µM	41.9 µM	> 100 µM	88.9 µM	76.2 µM	> 100 µM	> 100 µM	> 100 µM
O=C(O)/C=C/n1c2ccccc2c(=O)c2ccccc21	> 100 µM	> 100 µM	> 100 µM	> 100 µM	> 100 µM	> 100 µM	> 100 µM	> 100 µM	> 100 µM	> 100 µM	> 100 µM	> 100 µM	> 100 µM	> 100 µM	> 100 µM	> 100 µM	> 100 µM	–	–
